The record followed here is ChEMBL document CHEMBL5053513, “Discovery of bilirubin as novel P2X7R antagonist with anti-tumor activity” (Bioorg Med Chem Lett, 2021).

Active and inactive are the calls of the source. The rule behind the calls is not given here.

Data set [1] has as its system HT-29. In words: Cytotoxicity against human HT-29 cells assessed as cell growth inhibition at 50 uM after 24 hrs by MTT assay. Format: functional, cell-based. In general terms: Formazan colour is commonly taken as a measure of viable cells.
A further data set has as its system RKO. The experiment in a line: Cytotoxicity against human RKO cells assessed as cell growth inhibition at 50 uM after 24 to 72 hrs by MTT assay. Format: functional, cell-based. The conditions noted are these: time 24-72 hrs.
Data set [2] addresses T1, P2X purinoceptor 7 (Homo sapiens) (UniProt Q99572).
T1 sequence (whole entry): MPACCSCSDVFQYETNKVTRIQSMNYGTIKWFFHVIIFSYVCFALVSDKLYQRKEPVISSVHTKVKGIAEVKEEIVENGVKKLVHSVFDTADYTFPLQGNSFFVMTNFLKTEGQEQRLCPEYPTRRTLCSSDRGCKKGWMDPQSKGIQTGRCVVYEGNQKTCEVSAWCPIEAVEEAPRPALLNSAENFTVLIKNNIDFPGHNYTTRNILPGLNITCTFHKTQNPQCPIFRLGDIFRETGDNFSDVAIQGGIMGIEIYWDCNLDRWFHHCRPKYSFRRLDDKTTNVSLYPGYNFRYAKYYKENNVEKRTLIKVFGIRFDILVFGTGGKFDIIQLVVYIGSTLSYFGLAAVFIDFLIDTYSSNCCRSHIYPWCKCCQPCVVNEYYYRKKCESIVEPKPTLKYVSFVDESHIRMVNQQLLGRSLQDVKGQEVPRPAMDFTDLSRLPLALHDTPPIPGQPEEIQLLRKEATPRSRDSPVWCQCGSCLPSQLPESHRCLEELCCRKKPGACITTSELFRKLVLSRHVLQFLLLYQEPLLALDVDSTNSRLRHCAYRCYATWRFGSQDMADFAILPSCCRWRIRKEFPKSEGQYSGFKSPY
The experiment in a line: Antagonist activity at human P2X7R expressed in human HT-29 cells assessed as reduction in ethidium bromide uptake at 100 uM in presence of BzATP. The data set is classed as cell-based. The settings on record: filed as antagonist.

Data set [3] deals with T1, P2X purinoceptor 7 (Homo sapiens). The experiment in a line: Antagonist activity at human P2X7R expressed in human RKO cells assessed as reduction in ethidium bromide uptake at 100 uM in presence of BzATP. Format: cell-based.
The subject of data set [4] is HT-29. In words: Cytotoxicity against human HT-29 cells assessed as cell growth inhibition at 50 uM after 48 to 72 hrs by MTT assay. The conditions noted are these: time 48-72 hrs. Format: functional, cell-based.
Data set [5] has as its target T2, P2X purinoceptor 7 (Mus musculus) (UniProt Q9Z1M0).
T2 sequence (whole entry): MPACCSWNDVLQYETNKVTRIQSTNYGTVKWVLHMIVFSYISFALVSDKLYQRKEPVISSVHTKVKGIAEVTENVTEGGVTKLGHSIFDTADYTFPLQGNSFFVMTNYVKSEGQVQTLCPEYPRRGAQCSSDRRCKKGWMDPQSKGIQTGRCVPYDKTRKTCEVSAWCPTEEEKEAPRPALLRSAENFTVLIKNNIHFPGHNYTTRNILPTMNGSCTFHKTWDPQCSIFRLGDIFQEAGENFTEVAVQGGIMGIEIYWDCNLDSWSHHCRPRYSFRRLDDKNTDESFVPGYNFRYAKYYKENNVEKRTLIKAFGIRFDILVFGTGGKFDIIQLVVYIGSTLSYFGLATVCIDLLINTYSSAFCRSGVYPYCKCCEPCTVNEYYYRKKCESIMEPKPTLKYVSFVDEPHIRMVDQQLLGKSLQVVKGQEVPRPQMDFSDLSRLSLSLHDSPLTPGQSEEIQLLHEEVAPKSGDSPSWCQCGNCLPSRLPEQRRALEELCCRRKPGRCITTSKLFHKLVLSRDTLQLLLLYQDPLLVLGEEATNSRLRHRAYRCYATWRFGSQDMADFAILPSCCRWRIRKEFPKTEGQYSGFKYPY
The experiment in a line: Antagonist activity at mouse P2X7R expressed in mouse CT26 cells assessed as reduction in ethidium bromide uptake by cells at 100 uM in presence of BzATP. Format: cell-based.

Data set [6] deals with HT-29. In words: Antimigratory activity against human HT-29 cells assessed as reversal of BzATP induced cell migration at 50 uM. Format: functional, cell-based.
The next data set has as its system HUVEC. In words: Cytotoxicity against HUVEC cells assessed as reduction in cell growth inhibition at 50 uM measured after 24 to 72 hrs by MTT assay. The data set is classed as cell-based. The conditions noted are these: human, time 24-72 hrs.

Consider `COc1ccc(CC(=O)NC(N/C(=N/C#N)Nc2cccc3ncccc23)C(C)(C)C)cc1OC` (stereo not drawn), for which the result (with HT-29 [1]; in the data set on RKO; in data set [3]; in data set [5]) was inactive. The outcome (in data set [2]; with HT-29 [4]) was Active.

For `CCOc1ccc(-n2c(=O)[nH]c3c(C(N)=O)nc(-c4cc(F)ccc4F)nc32)cc1`, the outcome (in the data set on HT-29 [1]; in data set [2]; in the data set on HT-29 [4]; with HT-29 [6]) was Active. The result (in the data set on RKO; in data set [3]) was inactive. The Activity entry in the data set with HUVEC is recorded as “Toxic”.
